Test results taken from patent US20110251189A1, “HYPOXIA TARGETED COMPOUNDS FOR CANCER DIAGNOSIS AND THERAPY” (priority 2008, published 2011).
Where two headings read alike, the source gives them in different places.

What was measured:
HepG2 cells [1] = test: Survival (MTT) cytotoxicity assay in HepG2 cells under normoxic or hypoxic conditions; type: cell-based; settings: for IC50: Homo sapiens, MTT assay; for toxicity in hypoxic versus normoxic exposure: transient exposure to hypoxic conditions
Description: Cell Culture and Cytotoxicity Assays. HepG2 cells (passage 2 from frozen stock) were cultured in RPMI 1640 containing 10% FBS. The tests were performed in 96-well plates with stock cells split equally into duplicate plates—one for normoxic and the other for hypoxic conditions. The drug(s) or vehicle (0.1% DMSO) was applied to the cells in log-exponential growth phase under normoxic conditions (5% CO2; 37 C) for 48 hours or under normoxic conditions (22 hr) followed by 2 hr hypoxic conditions (1% O2, 5% CO2, 94% N2 at 37° C.) then followed by reoxygenation for 24 hrs. For the hypoxia experiments, a glove chamber with two-way pressure value and one-way N2 inflow was used. Hypoxia conditions were met using methylene blue dye indicator (i.e. 0.015% methylene blue, 6% dextrose, 6 mM NaOH) which correlated with the O2 pressure in the glove box when measured continuously with a Clark-type electrode.^13
At 48 hrs, a tetrazolium component (MTT) assay (Promega, Madison, Wis.; Cell Titer 96 Non-Radioactive Cell Proliferation Assay) was performed following an established protocol in the laboratory. Since these assays depend on mitochondrial function, which may be affected by the state of oxygenation, clonogenic assays to verify survival function were also performed. It is important to note that the data presented for the MTT assay normalizes the OD595 for the drug treated wells (minus background) to its own vehicle treated well(s) under either normoxic or hypoxic conditions. These values are then plotted as a percentage (×100%) surviving 48 hrs of drug(s) or vehicle treatment under the said condition. These analyses have also been performed previously for other hypoxia studies.^14,15

HepG2 cells [2] = test: HepG2 clonogenic assay (colony count) under normoxic or hypoxic conditions; type: cell-based; settings: for cells dead / colonies dead: hypoxic conditions; for cells dead / cells dead compared with controls: 50 μM; for cells dead: p<0.00001 vs control treated hypoxic conditions; for colonies dead / colonies alive relative to controls: ~10 μM; for colonies dead: p<0.001 vs control treated cells; for cells dead compared with controls / colonies alive relative to controls: normoxic cells; for colonies alive relative to controls: FIG. 5
Description: In the HepG2 clonogenic assays, 3.5×10^3 per well were seeded in 6-well plates using RPMI1640 and 10% FBS. After 24 hrs of growth at 37° C., the cells were exposed to vehicle or drug(s). After 10 days incubation with drug(s) or control, the wells were washed with PBS twice, then fixed in 10% acetic acid for 10 min, then stained with crystal violet for 10 min, and finally rinsed with distilled water at room temperature. The colonies (>50 μm likely representing >50 cells) were then visually counted in randomly chosen 1-mm×1-mm grid repeated three times. Statistical analyses of the mean number of colonies were performed by using the Mann-Whitney t test, with significant differences established as P<0.05 as previously published by the laboratory.^16 For the hypoxia conditions, after 24 hr growth in normoxic conditions as above, the vehicle or drug(s) treated cells were exposed to hypoxic environment (1% O2, 5% CO2, 94% N2 at 37° C.) for 5 hrs, followed by re-oxygenation (5% CO2; 37° C.) for the remaining 10 days.

[3] = 22 hr normoxia, 2 hr hypoxia (1% O2), reoxygenation 24 hrs, read-out: IC50 (hypoxia)
[4] = normoxic conditions 48 hours, read-out: IC50 (normoxia)

Structure (SMILES) | IC50 (HepG2 cells [1]; [3]) | IC50 (HepG2 cells [1]; [4]) | toxicity in hypoxic versus normoxic exposure (HepG2 cells [1]) | cells dead (HepG2 cells [2]) | colonies dead (HepG2 cells [2]) | cells dead compared with controls (HepG2 cells [2]) | colonies alive relative to controls (HepG2 cells [2])
c1ccc(C2=Nc3ccccc3OC2)cc1 [Compound 3] | 10.8 ± 1.4 µM | 87 ± 1.3 µM | significantly more toxic to hypoxic exposure than to normoxic exposure | ~98% | ~71% | ~12% | ~105%
Clc1ccc2c(c1)N=C(c1ccccc1)CO2 [Compound 4] | 30 ± 2.4 µM | 78 ± 1.2 µM |  |  |  |  | 
O=[N+]([O-])c1ccc2c(c1)N=C(c1ccc(Cl)cc1)CO2 [Compound 7] | 20 ± 1.2 µM | 78 ± 1.4 µM | significantly more toxic to hypoxic exposure than to normoxic exposure | ~83% | ~28% | ~11% | ~110%
Clc1ccc(C2=Nc3ccc(Cl)cc3OC2)cc1 [Compound B47.2] | 28 ± 1.6 µM | 88 ± 2.4 µM |  |  |  |  | 
Cc1ccc2c(c1)N=C(c1ccc(Cl)cc1)CO2 [Compound B47.4] | 87 ± 1.8 µM | > 600 µM |  |  |  |  | 
